# Measured values published in ChEMBL document CHEMBL1201862, “PubChem BioAssay data set” (2004).
#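 Protocol summary: plate cells (96-well), add compound at 5 concentrations, incubate 48 h, interpolate endpoints linearly. GI50: concentration for 50% inhibition of growth.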 Activity calls are given as the source filed them. Cut-off read from the data, not from the text of the source: active = GI50 up to about 1.1 µM and inactive = higher.
# Legend:
# Test in all cases: NCI anticancer screen, dose series, 48 h
# 786-0 = system: 786-0
# A498 = system: A498
# A549 = system: A549
# ACHN = system: ACHN
# CAKI-1 = system: CAKI-1
# CCRF-CEM = system: CCRF-CEM
# COLO 205 = system: COLO 205
# DLD-1 = system: DLD-1
# DMS-114 = system: DMS-114
# DMS-273 = system: DMS-273
# EKVX = system: EKVX
# HCC 2998 = system: HCC 2998
# HCT-116 = system: HCT-116
# HCT-15 = system: HCT-15
# HL-60 = system: HL-60
# HOP-18 = system: HOP-18
# HOP-62 = system: HOP-62
# HOP-92 = system: HOP-92
# HT-29 = system: HT-29
# IGROV-1 = system: IGROV-1
# K562 = system: K562
# KM-20L2 = system: KM-20L2
# KM12 = system: KM12
# LOX IMVI = system: LOX IMVI
# LXFL 529 = system: LXFL 529
# M14 = system: M14
# M19-MEL = system: M19-MEL
# MOLT-4 = system: MOLT-4
# Malme-3M = system: Malme-3M
# NCI-H226 = system: NCI-H226
# NCI-H23 = system: NCI-H23
# NCI-H460 = system: NCI-H460
# NCI-H522 = system: NCI-H522
# OVCAR-3 = system: OVCAR-3
# OVCAR-4 = system: OVCAR-4
# OVCAR-5 = system: OVCAR-5
# OVCAR-8 = system: OVCAR-8
# RPMI-8226 = system: RPMI-8226
# RXF 393 = system: RXF 393
# SF-268 = system: SF-268
# SF-295 = system: SF-295
# SF-539 = system: SF-539
# SK-MEL-28 = system: SK-MEL-28
# SK-MEL-2 = system: SK-MEL-2
# SK-MEL-5 = system: SK-MEL-5
# SK-OV-3 = system: SK-OV-3
# SNB-19 = system: SNB-19
# SNB-75 = system: SNB-75
# SNB-78 = system: SNB-78
# SW-620 = system: SW-620
# TK-10 = system: TK-10
# U-251 = system: U-251
# UACC-257 = system: UACC-257
# UACC-62 = system: UACC-62
# UO-31 = system: UO-31
# SN12C = system: SN12C
# SR = system: SR
smiles,measurement,setting,value
COc1ccc(C2Oc3cc(OC)c(O)c(C)c3[C@H]2C)cc1 (some centres undefined),GI50,786-0,> 100 µM (inactive)
same,GI50,A498,79.4 µM (inactive)
same,GI50,A549,> 100 µM (inactive)
same,GI50,ACHN,54.2 µM (inactive)
same,GI50,CAKI-1,> 100 µM (inactive)
same,GI50,CCRF-CEM,36.2 µM (inactive)
same,GI50,COLO 205,> 100 µM (inactive)
same,GI50,DLD-1,> 100 µM (inactive)
same,GI50,DMS-114,58.7 µM (inactive)
same,GI50,DMS-273,73.3 µM (inactive)
same,GI50,EKVX,26.6 µM (inactive)
same,GI50,HCC 2998,> 100 µM (inactive)
same,GI50,HCT-116,35.6 µM (inactive)
same,GI50,HCT-15,58.9 µM
same,GI50,HL-60,18.2 µM (inactive)
same,GI50,HOP-18,19 µM (inactive)
same,GI50,HOP-62,> 100 µM (inactive)
same,GI50,HOP-92,> 100 µM (inactive)
same,GI50,HT-29,> 100 µM (inactive)
same,GI50,IGROV-1,> 100 µM (inactive)
same,GI50,K562,61.2 µM (inactive)
same,GI50,KM-20L2,> 100 µM (inactive)
same,GI50,KM12,> 100 µM (inactive)
same,GI50,LOX IMVI,40.5 µM (inactive)
same,GI50,LXFL 529,71.6 µM (inactive)
same,GI50,M14,> 100 µM (inactive)
same,GI50,M19-MEL,> 100 µM (inactive)
same,GI50,MOLT-4,33.3 µM (inactive)
same,GI50,Malme-3M,> 100 µM (inactive)
same,GI50,NCI-H226,26.9 µM (inactive)
same,GI50,NCI-H23,57.3 µM (inactive)
same,GI50,NCI-H460,38.2 µM (inactive)
same,GI50,NCI-H522,35.2 µM (inactive)
same,GI50,OVCAR-3,> 100 µM (inactive)
same,GI50,OVCAR-4,80.4 µM (inactive)
same,GI50,OVCAR-5,> 100 µM (inactive)
same,GI50,OVCAR-8,70 µM (inactive)
same,GI50,RPMI-8226,> 10 µM (inactive)
same,GI50,RXF 393,23 µM (inactive)
same,GI50,SF-268,41.4 µM (inactive)
same,GI50,SF-295,> 100 µM (inactive)
same,GI50,SF-539,> 100 µM (inactive)
same,GI50,SK-MEL-28,> 100 µM (inactive)
same,GI50,SK-MEL-2,> 100 µM (inactive)
same,GI50,SK-MEL-5,62.7 µM (inactive)
same,GI50,SK-OV-3,> 100 µM (inactive)
same,GI50,SNB-19,26.9 µM (inactive)
same,GI50,SNB-75,7.87 µM (inactive)
same,GI50,SNB-78,> 100 µM (inactive)
same,GI50,SW-620,66.4 µM (inactive)
same,GI50,TK-10,> 100 µM (inactive)
same,GI50,U-251,> 100 µM (inactive)
same,GI50,UACC-257,> 100 µM (inactive)
same,GI50,UACC-62,> 100 µM (inactive)
same,GI50,UO-31,17.1 µM (inactive)
CCOP(=O)(OCC)/C(C#N)=C/c1ccc[nH]1,GI50,786-0,> 100 µM (inactive)
same,GI50,A549,> 100 µM (inactive)
same,GI50,ACHN,> 100 µM (inactive)
same,GI50,CAKI-1,> 100 µM (inactive)
same,GI50,CCRF-CEM,> 100 µM (inactive)
same,GI50,COLO 205,> 100 µM (inactive)
same,GI50,DLD-1,> 100 µM (inactive)
same,GI50,DMS-114,> 100 µM (inactive)
same,GI50,DMS-273,> 100 µM (inactive)
same,GI50,HCT-116,> 100 µM (inactive)
same,GI50,HCT-15,> 100 µM
same,GI50,HL-60,> 100 µM (inactive)
same,GI50,HOP-18,> 100 µM (inactive)
same,GI50,HOP-62,> 100 µM (inactive)
same,GI50,HOP-92,> 100 µM (inactive)
same,GI50,HT-29,> 100 µM (inactive)
same,GI50,K562,> 100 µM (inactive)
same,GI50,KM-20L2,> 100 µM (inactive)
same,GI50,KM12,> 100 µM (inactive)
same,GI50,LOX IMVI,> 100 µM (inactive)
same,GI50,LXFL 529,> 100 µM (inactive)
same,GI50,M14,> 100 µM (inactive)
same,GI50,M19-MEL,> 100 µM (inactive)
same,GI50,MOLT-4,> 100 µM (inactive)
same,GI50,Malme-3M,> 100 µM (inactive)
same,GI50,NCI-H226,> 100 µM (inactive)
same,GI50,NCI-H23,> 100 µM (inactive)
same,GI50,NCI-H460,> 100 µM (inactive)
same,GI50,NCI-H522,> 100 µM (inactive)
same,GI50,OVCAR-3,> 100 µM (inactive)
same,GI50,OVCAR-4,> 100 µM (inactive)
same,GI50,OVCAR-5,> 100 µM (inactive)
same,GI50,OVCAR-8,> 100 µM (inactive)
same,GI50,RPMI-8226,> 100 µM (inactive)
same,GI50,RXF 393,> 100 µM (inactive)
same,GI50,SF-268,> 100 µM (inactive)
same,GI50,SF-295,> 100 µM (inactive)
same,GI50,SF-539,> 100 µM (inactive)
same,GI50,SK-MEL-28,> 100 µM (inactive)
same,GI50,SK-MEL-2,> 100 µM (inactive)
same,GI50,SK-MEL-5,> 100 µM (inactive)
same,GI50,SK-OV-3,> 100 µM (inactive)
same,GI50,SN12C,> 100 µM (inactive)
same,GI50,SNB-19,> 100 µM (inactive)
same,GI50,SNB-75,55.7 µM (inactive)
same,GI50,SNB-78,> 100 µM (inactive)
same,GI50,SR,> 100 µM (inactive)
same,GI50,SW-620,> 100 µM (inactive)
same,GI50,TK-10,74.6 µM (inactive)
same,GI50,U-251,> 100 µM (inactive)
same,GI50,UACC-257,> 100 µM (inactive)
same,GI50,UACC-62,> 100 µM (inactive)
same,GI50,UO-31,> 100 µM (inactive)
COc1cc(C2c3cc4c(cc3[C@@H](NCCN3CCCCC3)C3COC(=O)[C@H]23)OCO4)cc(OC)c1O (some centres undefined),GI50,786-0,0.188 µM (active)
same,GI50,A498,0.237 µM (active)
same,GI50,A549,0.0484 µM (active)
same,GI50,ACHN,0.671 µM (active)
same,GI50,CAKI-1,0.0802 µM (active)
same,GI50,CCRF-CEM,0.055 µM (active)
same,GI50,COLO 205,0.782 µM (active)
same,GI50,DLD-1,1.6 µM (inactive)
same,GI50,DMS-273,0.123 µM (active)
same,GI50,EKVX,1.63 µM (inactive)
same,GI50,HCT-116,1.82 µM (inactive)
same,GI50,HCT-15,0.337 µM
same,GI50,HL-60,0.0322 µM (active)
same,GI50,HOP-18,0.509 µM (active)
same,GI50,HOP-62,0.0624 µM (active)
same,GI50,HOP-92,0.265 µM (active)
same,GI50,HT-29,1.23 µM (inactive)
same,GI50,IGROV-1,1.46 µM (inactive)
same,GI50,K562,0.822 µM (active)
same,GI50,KM-20L2,1.53 µM (inactive)
same,GI50,KM12,1.08 µM (active)
same,GI50,LOX IMVI,0.204 µM (active)
same,GI50,LXFL 529,2 µM (inactive)
same,GI50,M14,0.324 µM (active)
same,GI50,M19-MEL,1 µM (active)
same,GI50,MOLT-4,< 0.01 µM (active)
same,GI50,Malme-3M,0.451 µM (active)
same,GI50,NCI-H226,0.0324 µM (active)
same,GI50,NCI-H23,0.167 µM (active)
same,GI50,OVCAR-3,1.04 µM (active)
same,GI50,OVCAR-4,0.27 µM (active)
same,GI50,OVCAR-5,1.69 µM (inactive)
same,GI50,OVCAR-8,0.998 µM (active)
same,GI50,RPMI-8226,0.4 µM (active)
same,GI50,SF-268,0.628 µM (active)
same,GI50,SF-295,0.0986 µM (active)
same,GI50,SF-539,0.209 µM (active)
same,GI50,SK-MEL-28,2.42 µM (inactive)
same,GI50,SK-MEL-2,2.06 µM (inactive)
same,GI50,SK-MEL-5,0.325 µM (active)
same,GI50,SK-OV-3,0.0526 µM (active)
same,GI50,SN12C,2.04 µM (inactive)
same,GI50,SNB-19,0.323 µM (active)
same,GI50,SNB-75,0.256 µM (active)
same,GI50,SNB-78,2.7 µM (inactive)
same,GI50,SW-620,0.621 µM (active)
same,GI50,TK-10,1.89 µM (inactive)
same,GI50,U-251,0.122 µM (active)
same,GI50,UACC-257,2.93 µM (inactive)
same,GI50,UACC-62,0.298 µM (active)
same,GI50,UO-31,0.566 µM (active)
